Measured values taken from US20110281852A1 (priority 2010, published 2011).

Columns and labels:
[1] = Excerpt: Mouse experiments: All experiments were approved by Institutional Animal Care and Use Committee of South Dakota State University. Nine-week-old C57BL/6J male mice were purchased from The Jackson Laboratory. Group 1 mice were fed with normal diet (ND, D12450Bi, Research Diets Inc. New Brunswick, N.J., USA) for 9 weeks, group 2 mice were fed with ND for 6 weeks and then high-fat diet (FD, D12451i, Research Diets Inc. New Brunswick, N.J., USA) for 3 weeks. The mice were maintained according to The Jackson Laboratory guidelines for animal care and housed at 22±2° C. temperature, 55±5% relative humidity, with a light/dark cycle of 12 hours. Food (group 1 with normal fat diet and group 2 with high-fat diet until sacrifice) and water were provided ad libitum. […] Six mice per subgroup were obtained finally. […] Blood samples were collected from the hearts of anesthetized mice after feeding and treatment for 36 days following fast for 16 hours. When sacrificed, mouse liver, kidney, spleen and epididymal fat tissues were dissected and weighed. Epididymal fat tissues were immediately frozen in liquid nitrogen and stored at −80° C.
[2] = Serum glucose assay in mice; assay type: in vivo, mouse
Description: Six mice per subgroup were obtained finally.
Serum glucose, triglyceride, cholesterol assay: Blood samples from each mouse were collected and serum was separated by centrifugation for the measurement of levels of glucose, triglyceride and total cholesterol. Serum glucose concentrations were analyzed using Glucose (HK) Assay Kit (Sigma-aldrich, Saint Louis, Mo., USA). Serum triglyceride concentrations were analyzed using Serum Triglyceride Determination Kit (Sigma-aldrich, Saint Louis, Mo., USA). Serum cholesterol concentrations were analyzed using Amplex® Red Cholesterol Assay Kit (Invitrogen, Carlsbad, Calif., USA). All experimental assays were done according to the manufacturer's instructions.

C/EBPα = assay: Immunoblot, C/EBPα protein in epididymal fat of FD mice; assay type: in vivo, mouse; conditions: berberine treatment
Description: (§1) RNA and protein purification and quantification from epididymal fat tissues: RNA and protein was isolated from 60 mg of epididymal fat tissues with Trizol (Invitrogen, Carlsbad, Calif., USA) following the protocol recommended by the manufacturers. RNA was dissolved in pure water and quantified at 260/280 nm, and sample integrity was checked by 1.5% agarose gel electrophoresis. Protein concentration was determined using the Micro BCA Protein Assay Kit (Fisher Scientific, Pittsburgh, Pa., USA) according to the manufacturer's instructions.
(§2) Immunoblot Analysis: Protein expression of GATA-2, GATA-3, PPARγ and C/EBPα in the control of β-actin was assessed by Western Blot. Protein samples from the same group were homogenized as previously reported (Hu and Davies, Phytomedicine (2009) 16:864-873). Protein (25 μg) was separated by polyacrylamide gel electrophoresis using the BioRad Electrophoretic System (60 V for 1 h followed by 90 V for 5 h). The proteins were then transferred to nitrocellulose membranes at 35 V overnight. […]

GATA-2 = assay: Immunoblot, GATA-2 protein in epididymal fat of FD mice; assay type: in vivo, mouse; conditions: berberine treatment
Description: as §1, §2

GATA-3 = assay: Immunoblot, GATA-3 protein in epididymal fat of FD mice; assay type: in vivo, mouse
Description: as §1
Immunoblot Analysis: Protein expression of GATA-2, GATA-3, PPARγ and C/EBPα in the control of β-actin was assessed by Western Blot. Protein samples from the same group were homogenized as previously reported (Hu and Davies, Phytomedicine (2009) 16:864-873). Protein (25 μg) was separated by polyacrylamide gel electrophoresis using the BioRad Electrophoretic System (60 V for 1 h followed by 90 V for 5 h). The proteins were then transferred to nitrocellulose membranes at 35 V overnight. The membrane was blocked for 1 h at room temperature in 5% nonfat milk in Tris-buffered saline (TBS), then washed with Tween-20-TBS (TTBS, 0.1% Tween-20) three times (15 min, 5 min, 5 min), followed by incubation with primary antibodies mouse GATA-2, GATA-3 (dilution 1:200), PPARγ, C/EBPα and β-actin (dilution 1:500) at room temperature for 2 h (all antibodies were purchased from Santa Cruz Biotechnology, Santa Cruz, Calif., USA). The membrane was rinsed three times (15 min, 5 min, 5 min), then incubated at room temperature for 1 h with horseradish peroxidase-conjugated second antibody (1:10,000). The membrane was then incubated in ECL reagent (GE Healthcare, Piscataway, N.J., USA) for 1 min. Protein was visualized using the UVP image analysis system (UVP, Upland, Calif., USA).

3T3-L1 cells = assay: Oil-Red-O staining and quantification, berberine with amentoflavone in 3T3-L1 (Example 6); assay type: cell-based, mouse; conditions: 8 days
Description: Oil-Red-O staining and quantification: Oil-Red-O Staining and its quantification were performed as previously reported. Briefly, medium was removed and cells were washed with PBS twice, fixed with 3.7% formalin at room temperature for 30 min, then rinsed with pure water, added 60% isopropanol and incubated for 5 minutes, then moved out isopropanol and stained cells with diluted Oil-Red-O solution (Oil-Red-O store solution (3 mg/ml in pure isopropanol): water=3:2) at room temperature for 10 min. Then the diluted Oil-Red-O solution was removed and cells were washed 3 times with pure water. After staining, the cells were washed twice with 70% ethanol to remove excess stain. Stained oil droplets in the cells were dissolved in isopropanol containing 4% Nonidet-P40 (Fisher Scientific, Pittsburgh, Pa., USA) shaking in 37° C. at speed 100 rpm for 1 hour, and OD values were measured at an absorbance of 490 nm and then normalized with control group.

[3] = system: SERT (serotonin transporter); assay: Real-Time RT-PCR, SERT mRNA in RN46A cells; assay type: cell-based
Description: Realtime RT-PCR: Real-Time reverse transcriptase polymerase chain reaction (RT-PCR) analysis was used to measure mRNA expression of SERT under the control of β-actin. Briefly, total RNA was isolated from RN46A cells following treatment with Trizol reagent (Invitrogen, Carlsbad, Calif., USA) according to the manufacturer's instruction. […] 0.8 μg of total RNA from each sample was used for reverse transcription reaction using the TaqMan Reverse Transcription Reagents (Applied Biosystems, Foster City, Calif., USA) following the manufacturer's instructions. PCR was done using the SYBR green Master Mix (Applied Biosystems, Foster City, Calif., USA) following the manufacturer's instructions. The temperature cycling conditions of amplification were as follows: an initial step of denaturation at 95° C. for 10 min, 40 cycles of denaturation at 95° C. for 30 s, annealing at 55° C. for 30 s, and elongation at 72° C. for 30 s. Real-Time RT-PCR was performed using Mx3000P Real-Time Thermocyclers (Statagene, La Jolla, Calif., USA).

[4] = system: SERT (serotonin transporter); assay: Immunoblot, SERT protein in RN46A cells; assay type: cell-based
Description: Immunoblot Analysis: Protein expression of SERT was assessed by Western Blot. Total proteins were isolated from RN46A cells treated with compounds or vehicles. The cells were washed twice with PBS, lysed in a lysis buffer containing HEPES-Tx-PI buffer: 910 mM HEPES, 5 mM EDTA, 350 mM Sucrose, 1 μg/ml leupeptin, 1 μg/ml pepstatin, 1% Triton-X, 1 mM PMSF), processed with a 25G needle and centrifuged at 10,000 rpm for 5 min. Protein concentration was determined using the Micro BCA Protein Assay Kit (Fisher Scientific, Pittsburgh, Pa., USA) according to the manufacturers instructions. 25 μg proteins were loaded and separated by electrophoresis using the BioRad Electrophoretic System (60 V for 1 hour followed by 90 V for 5 hours). The proteins were then transferred to nitrocellulose membranes at 35 V overnight. The membrane was blocked for 1 hour at room temperature in 5% nonfat milk in Tris-buffered saline (TBS), then washed with Tween-20-TBS (TTBS, 0.1% Tween-20) three times (15 min, 5 min, 5 min), followed by incubation with primary antibodies SERT (dilution 1:200) (Antibody was purchased from Santa Cruz Biotechnology, Santa Cruz, Calif., USA) and β-actin (dilution 1:1000) (Antibody was purchased from Sigma-aldrich, USA) at room temperature for 2 hours. […]

COc1ccc2cc3[n+](cc2c1OC)CCc1cc2c(cc1-3)OCO2.[Cl-] [berberine, Berberine (Chloride Form)]
liver weight, berberine vs control treated subgroup ([1]; ND mice): no significant difference | toxicity to FD mice organs or to ND mice ([1]; up to 3 mg/kg/day i.p., 36 days): did not appear to exhibit any obvious toxicity | reduction of serum glucose level vs control treated subgroup ([2]; FD mice, 0.75 mg/kg/day): 19.5% | fasting serum glucose level ([2]; FD mice, 0.75 mg/kg/day, 36 days (control 195.4±27.3)): 157.3 ± 22.5 mg/dL | reduction of serum glucose level vs control treated subgroup ([2]; FD mice, 1.5 mg/kg/day): 22.3% | fasting serum glucose level ([2]; FD mice, 1.5 mg/kg/day, 36 days): 151.8 ± 21.1 mg/dL | reduction of serum glucose level vs control treated subgroup ([2]; FD mice, 3 mg/kg/day): 26.5% | fasting serum glucose level ([2]; FD mice, 3 mg/kg/day, 36 days): 143.5 ± 12.7 mg/dL | fasting serum glucose level ([2]; ND mice, 3 mg/kg/day (control 120.6±27.5)): 130.9 ± 16.2 mg/dL | quantitative protein expression of CEBP-α (C/EBPα): did not appear to be significantly changed | quantitative protein expression of GATA-2 (GATA-2): did not appear to be significantly changed | GATA-3 protein expression increased to (GATA-3; 0.75 mg/kg/day): 2.2 fold | GATA-3 protein expression increased to (GATA-3; 1.5 mg/kg/day): 2.5 fold | GATA-3 protein expression increased to (GATA-3; 3 mg/kg/day): 6.9 fold | reduction in lipid content vs no berberine treated group (3T3-L1 cells; 2 μM berberine, differentiation medium with 15 μM clozapine): 26% | reduction in lipid content vs no berberine treated group (3T3-L1 cells; 2 μM berberine, differentiation medium without clozapine): 9.9% | reduction in lipid content vs no berberine treated group (3T3-L1 cells; 4 μM berberine, differentiation medium with 15 μM clozapine): 70.7% | reduction in lipid content vs no berberine treated group (3T3-L1 cells; 4 μM berberine, differentiation medium without clozapine): 59.6% | reduction in lipid content vs no berberine treated group (3T3-L1 cells; 8 μM berberine, differentiation medium with 15 μM clozapine): 88.1% | reduction in lipid content vs no berberine treated group (3T3-L1 cells; 8 μM berberine, differentiation medium without clozapine): 81.7% | reduction in lipid content vs no berberine treated group (3T3-L1 cells; 16 μM berberine, differentiation medium without clozapine): 81%

evodiamine
increase of SERT mRNA expression vs control group ([3]; 2 μM evodiamine): 2.5 fold | increase of SERT mRNA expression vs control group ([3]; 4 μM evodiamine): 1.7 fold | SERT protein expression profile (Western blot) [4]: consistent with its mRNA expression profile
